From the SangsterLogP compilation

Tests used:
[1] = method code SF-EPR, from DOI: 10.1016/0003-9861(82)90097-2, PMID: 6284047; settings: pH 7.4
[2] = method code SF-HPLC, from DOI: 10.1002/jps.2600841008, PMID: 8801331
[3] = not given; remark: listed apart in the source
[4] = pH 1.0
[5] = method code SF, from PMID: 2704; settings: pH 1.0
[6] = method code SF-AS, from DOI: 10.2307/3577276, PMID: 2913608
[7] = method code SF-AS, from DOI: 10.1016/0021-9673(91)80064-n
[8] = not given; remark: listed apart in the source
[9] = method code SF-AS, from DOI: 10.1021/jm00299a013, PMID: 5458368
[10] = method code SF-RC, from DOI: 10.1002/ps.2780300102; settings: pH 2.0
[11] = method code SF-GLC, from DOI: 10.1016/0147-6513(82)90020-3, PMID: 7106034
[12] = not given; remark: listed apart in the source
[13] = method code SF-RC, from DOI: 10.1016/s0026-895x(25)10639-1, PMID: 1170492
[14] = method code SF, from DOI: 10.1021/js9700917, PMID: 9452977; settings: pH 5.5
[15] = not given; remark: listed apart in the source
[16] = not given; remark: listed apart in the source
[17] = not given; remark: listed apart in the source
[18] = method code SF-HPLC, from DOI: 10.1021/jm9509197, PMID: 8648601; settings: pH 7.4
[19] = not given; remark: listed apart in the source
[20] = method code SF-AS, from DOI: 10.1135/cccc19822514; settings: pH 3.5
[21] = not given; remark: listed apart in the source
[22] = method code SF-GLC, from DOI: 10.1007/bf00212402, PMID: 7663085
[23] = not given; remark: listed apart in the source
[24] = method code SF-RC, from DOI: 10.1248/cpb.38.3099, PMID: 2085895; settings: pH 7.4
[25] = method code SF-AS, from DOI: 10.1016/0005-2728(86)90252-5, PMID: 3015209; settings: pH 7.2
[26] = not given; remark: listed apart in the source
[27] = method code SF-AS, from DOI: 10.1080/09553007214550551, PMID: 4537457
[28] = method code SF-AS, from DOI: 10.1016/j.bmc.2008.07.057, PMID: 18706818; settings: pH 7.4
[29] = method code SF, from DOI: 10.1002/qsar.19920110207; settings: pH 1.0
[30] = not given; remark: listed apart in the source
[31] = not given; remark: listed apart in the source
[32] = method code SF-AS, from DOI: 10.1111/j.2042-7158.1980.tb13082.x, PMID: 6110743
[33] = method code SF-AS, from DOI: 10.1248/cpb.15.1705, PMID: 5583828; settings: pH 1.1
[34] = not given; remark: listed apart in the source
[35] = method code SF-AS, from DOI: 10.1248/cpb.21.2309, PMID: 4775970; settings: pH 3.3
[36] = method code SF-AS, from DOI: 10.1016/0006-2952(75)90156-2, PMID: 235934; settings: pH 7.4
[37] = not given; remark: listed apart in the source

CCC1(C)OCC(C)(C)N1[O] (stereo unspecified)
logD [1]: 1

CON=C(C#N)C(=O)N[C@@H](CCSC)C(=O)O
logP: 0.86

CON=C(C#N)C(=O)NC(CCS(C)(=O)=O)C(=O)O (stereo unspecified)
logP: -0.52

CCOC(=O)C1=C(COCCN)NC(C)=C(C(=O)OC)C1c1ccccc1Cl (stereo unspecified)
logD ([2]; pH 11.0): 3.09

O=C(C(=O)c1ccc(Cl)cc1)c1ccccc1
logP [3]: 2.6

O=C(O)C(c1ccc(Cl)cc1)c1ccc(Cl)cc1
logD [4]: 4.64

COc1ccc(C=O)cc1C
logD [5]: 2.23

O=[N+]([O-])c1ccccc1NS(=O)(=O)c1[nH]cnc1[N+](=O)[O-]
logP [6]: 1.2

C=CC(=O)NCCCN1CCOCC1
logP [7]: -0.52

OCCC(F)(F)C(F)(F)C(F)(F)C(F)(F)C(F)(F)C(F)(F)C(F)(F)C(F)(F)C(F)(F)C(F)(F)F
logP [8]: 7.57

Cc1ncc([N+](=O)[O-])n1CCCS(C)(=O)=O
logP [9]: -1

COc1nc(C)nc(NC(=O)NS(=O)(=O)c2ccccc2Cl)n1
logD [10]: 1.54

CCN(CC)C(=S)SSC(=S)N(CC)CC
logP [11]: 3.88

CCNc1nc(Cl)nc(NC(C)CC)n1 (stereo unspecified)
logP [12]: 3.02

CNC(=S)NN=C(C)CSCC(C)=NNC(=S)NC
logP [13]: 1.4

NS(=O)(=O)c1ncncc1-c1ccccc1
logD [14]: 0.5

CNC(=O)OCc1ccc(I)cc1[N+](=O)[O-]
logP [15]: 1.67

O=C(O)CNC(=O)c1cccc(I)c1
logP [16]: 1.44

N#CC(C#N)=NNc1ccc(C(=O)CCl)cc1
logD ([17]; pH 3.0): 2.15

CCCS(=O)(=O)CCn1c([N+](=O)[O-])cnc1C
logP [9]: 0.23

O=[N+]([O-])c1ncnc2c1ncn2C1OC(CO)CC1F (stereo unspecified)
logD [18]: -0.4

CCCOC(=O)c1ccccc1Cl
logP [19]: 3.45

CC(C(=O)O)c1ccccc1 (stereo unspecified)
logD [20]: 1.8

O=S(=O)(O)c1ccc(-c2ccc(S(=O)(=O)O)cc2)cc1
logP [21]: 0.3

ClC1=C(Cl)C2(Cl)C3C(Cl)C(Cl)(Cl)CC3C1(Cl)C2(Cl)Cl (stereo unspecified)
logP [22]: 6.06

CC(CSCC(C)=NNC(N)=S)=NNC(N)=S
logP [13]: 0.7

FC1(F)C(F)(F)C(F)(F)C2(F)C(F)(F)C(F)(F)C(F)(F)C(F)(F)C2(F)C1(F)F (stereo unspecified)
logP [23]: 6

CNC(=S)NN=C(C)CC(C)=NNC(=S)NC
logD [24]: 2.66

N#CC(C#N)=NNc1ccc([N+](=O)[O-])cc1Cl
logD [25]: 2

Clc1cc2c(Cl)c(Cl)c(Cl)c(Cl)c2c(Cl)c1Cl
logP [26]: 7.33

COc1ccc(C(C)=O)cc1
logP [27]: 1.82

CCCCC1(C(N)=O)CCC=[N+]1[O-] (stereo unspecified)
logD [28]: -0.18

Clc1cc2c(Cl)cc(Cl)c(Cl)c2c(Cl)c1Cl
logP [26]: 6.87

Oc1cccc2ncccc12
logD ([2]; pH 7.4): 2.13

CC(=O)c1ccc(C(=O)O)cc1
logD [29]: 1.61

O=C(O)CCc1cccc(I)c1
logP [16]: 2.68

NC(=O)Nc1ccc(CC(=O)O)cc1
logD [10]: 0.01

CC1(C)CCCC(C)(C)N1O
logD [1]: 1.81

CCCCCCOC(=O)c1ccccc1C(=O)OCCCCCC
logP [30]: 5.8

O=NN(CCCl)C(=O)NC1CCCC(O)C1 (stereo unspecified)
logP [31]: 1.28

CNC(=O)N(C)c1nc2ccccc2s1
logP [12]: 2.38

CCCCCOc1cccc(O)c1
logP [32]: 3.63

C=CCC1(CC)C(=O)NC(=O)NC1=O
logD [33]: 0.95

CNC(=O)OCc1cccc(I)c1[N+](=O)[O-]
logP [15]: 1.64

N#CC(C#N)=NNc1cccc(O)c1
logD ([17]; pH 7.2): 1.48

CCCC1(C(N)=O)CCC=[N+]1[O-] (stereo unspecified)
logD [28]: -0.68

Nc1c2ncn(C3OC(CO)CC3F)c2nc[n+]1[O-] (stereo unspecified)
logD [18]: -0.98

Cc1cccc(C)c1NN=C(C#N)C#N
logD [25]: 2.1

COC(=O)c1ccccc1NS(=O)(=O)c1[nH]cnc1[N+](=O)[O-]
logP [6]: 1.6

CNC(=S)N/N=C(C)\C(C)=N/NC(=S)NC
logD [24]: 0.67

CC(=O)c1cccc(C(=O)O)c1
logD [29]: 1.56

OCCC(F)(F)C(F)(F)C(F)(F)C(F)(F)C(F)(F)C(F)(F)C(F)(F)C(F)(F)F
logP [8]: 6.14

CCSc1nnc(C(C)(C)C)c(=O)n1N
logP [34]: 2.08

Cc1ccc(C)c(C(=O)NS(=O)(=O)c2ccc(N)cc2)c1
logD [35]: 2.19

CCCCOc1ccc([N+](=O)[O-])cc1
logD [36]: 3.5

CC(=O)c1ccc(C)cc1
logP [27]: 2.28

CC(Oc1cc(Cl)c(Cl)cc1Cl)C(=O)O (stereo unspecified)
logD [4]: 3.8

CCOC(=O)c1cccc(O)c1
logP [19]: 2.47

O=NN(CCCl)C(=O)NC1CCCCC1O (stereo unspecified)
logP [31]: 1.6

CCC1(CCC(C)C)C(=O)NC(=O)NC1=O
logD [33]: 2.07

Cc1nc(NS(=O)(=O)c2ccc(N)cc2)oc1C
logD [14]: 0.2

Cc1nnc(NS(=O)(=O)c2ccc(N)cc2)s1
logD [35]: 0.26

FC(F)(F)C1(F)C(F)(F)C(F)(F)C(F)(N2C(F)(F)C(F)(F)C(F)(F)C(F)(F)C2(F)F)C(F)(F)C1(F)F (stereo unspecified)
logP [23]: 7

COC(=O)c1ccccc1C(=O)OC
logP [30]: 1.9

COC(=O)COc1ccccc1
logD [5]: 1.41

C=Cc1ccc(C=C)cc1
logP [3]: 3.2

ClC1=C(Cl)C2(Cl)C3CC=CC3C1(Cl)C2(Cl)Cl (stereo unspecified)
logP [22]: 5.57

CN(C(=O)NC(C)(C)c1ccccc1)c1ccccc1
logP [34]: 3.01

Nc1ccc2c(S(=O)(=O)O)cc(S(=O)(=O)O)cc2c1
logP [21]: -1.6

CCCOc1cccc(O)c1
logP [32]: 2.59

c1ccc(Nc2ccc3ccccc3c2)cc1
logP [37]: 4.38

CC(C)Oc1ccc([N+](=O)[O-])cc1
logD [36]: 2.8

ClC1=C(Cl)C2(Cl)C3C4OC4C(Cl)C3C1(Cl)C2(Cl)Cl (stereo unspecified)
logP [37]: 5.4

O=S1OCC2C(CO1)C1(Cl)C(Cl)=C(Cl)C2(Cl)C1(Cl)Cl (stereo unspecified)
logP [11]: 3.83

O=C(O)CCc1ccccc1
logD [20]: 1.91

C=CC(=O)NCCN1CCOCC1
logP [7]: -0.55
